Structures can show the parent of a compound that is named as a salt. One block for each molecule: values may come before it.
Columns and labels:
[1] = Plasma protein binding by rapid equilibrium dialysis; conditions: mouse
[2] = Stability of rottlerin in plasma under storage conditions; type: in vitro ADME, mice; conditions: n=4
[3] = In vivo pharmacokinetics after oral and IV administration; design: species or system Balb/C mice
[4] = Plasma stability in mice plasma; conditions: 0–2 h, 10 µM, 37°C
[5] = Metabolic stability in human liver microsomes; type: in vitro ADME; conditions: 5 µM, 0.5 mg/mL microsomal protein, NADPH, up to 30 min
[6] = Metabolic stability in mouse liver microsomes; type: in vitro ADME; conditions: 5 µM, 0.5 mg/mL microsomal protein, NADPH, up to 30 min
[7] = intravenous, 1 mg/kg, Balb/C mice
[8] = male, Balb/C, mouse, plasma, iv, 1 mg/kg
[9] = male, Balb/C, mouse, plasma, po, 4 mg/kg

- fraction unbound at 4 h, 5 µM [1]: 0.793
Structure (SMILES): CNC(=C[N+](=O)[O-])NCCSCc1ccc(CN(C)C)o1 [ranitidine, ranitidine hydrochloride]

Structure (SMILES): CC(=O)c1c(O)c(C)c(O)c(Cc2c(O)c3c(c(C(=O)/C=C/c4ccccc4)c2O)OC(C)(C)C=C3)c1O [Rottlerin]
- stability study accuracy (%) ([2]; autosampler: processed samples, 4 °C, 24 h, HQC 800 ng/mL): 92.89%
- stability study accuracy (%) ([2]; autosampler: processed samples, 4 °C, 24 h, LQC 5.7 ng/mL): 90.04%
- stability study accuracy (%) ([2]; freeze–thaw: three cycles, −20 °C / room temperature, HQC 800 ng/mL): 91.69%
- stability study accuracy (%) ([2]; freeze–thaw: three cycles, −20 °C / room temperature, LQC 5.7 ng/mL): 88.60%
- Cl [3, 7]: 0.35 ± 0.03 L/h/kg
- T1/2 [3, 7]: 2.9 ± 0.8 h
- Vd [3, 7]: 1.4 ± 0.4 L/kg
- Cl ([3]; intravenous, 1 mg/kg, Balb/C mice, listed as rottlerin): ≤ 1 L/h/kg
- exposure (plasma levels) ([3]; iv, 1 mg/kg, Balb/C mice): ~3 µg·h/mL
- AUC(0-inf) [3, 8]: 2920 ± 292 ng·h/mL
- AUC(0-t) [3, 8]: 2850 ± 311 ng·h/mL
- C0 [3, 8]: 2110 ± 359 ng/mL
- half-life ([3]; male, Balb/C, mouse, plasma, iv, 1 mg/kg, T1/2, intravenous, Balb/C mice): > 120 min
- AUC(0-inf) [3, 9]: 4090 ± 348 ng·h/mL
- AUC(0-t) [3, 9]: 4050 ± 360 ng·h/mL
- Cmax [3, 9]: 660 ± 60 ng/mL
- half-life ([3]; male, Balb/C, mouse, plasma, po, 4 mg/kg, T1/2, oral, Balb/C mice): > 120 min
- Tmax ([3]; male, Balb/C, mouse, plasma, po, 4 mg/kg, Tmax, Balb/C mice): ~2.4 h
- oral bioavailability ([3]; oral 4 mg/kg vs IV 1 mg/kg, Balb/C mice): 35–36%
- Cl ([3]; oral, 4 mg/kg, Balb/C mice): 1.01 ± 0.08 L/h/kg
- T1/2 ([3]; oral, 4 mg/kg, Balb/C mice): 2.7 ± 0.4 h
- Vd ([3]; oral, 4 mg/kg, Balb/C mice): 3.8 ± 0.6 L/kg
- exposure (plasma levels) ([3]; oral, 4 mg/kg, Balb/C mice): around 4 μg h/mL
- Cl ([3]; oral, 4 mg/kg, Balb/C mice, listed as rottlerin): ≤ 1 L/h/kg
- degradation in mice plasma [4]: < 5%
- remained intact in HLMs [5]: over 91%
- remained intact in MLMs [6]: > 75%

From publication PMC8655892 (ACS Omega, 2021)
